Reference: ChEMBL document CHEMBL1126996, “Structure-activity relationships of 6-substituted benzopyran-4-carbothioamide potassium channel openers” (Bioorg Med Chem Lett, 1993)

How the values were obtained:
[1] = organism: Rattus norvegicus; assay: Percent of intrinsic activity for vasorelaxant effect; assay type: functional
[2] = organism: Rattus norvegicus; assay: Negative logarithm of the molar concentration required to relax rat aorta precontracted with 30 mM KCl by 50% of IA; assay type: functional

Row | Compound | EC50 [2] | IA [1]
1 | C/N=C(/S)C1=CC(C)(C)Oc2ccc(C#N)cc21 | 24.5 nM | 89%
2 | C/N=C(/S)C1=CC(C)(C)Oc2ccc(OC(C)=O)cc21 | 95.5 nM | 76.1%
3 | CC1(C)Oc2ccc(C#N)cc2[C@@H](N2CCCC2=O)[C@@H]1O [CROMAKALIM] | 170 nM | 74.7%
4 | CNC(=S)C1=CC(C)(C)Oc2ccc(OC)cc21 | 417 nM | 61.5%
5 | C/N=C(/S)C1=CC(C)(C)Oc2ccc(S(C)(=O)=O)cc21 | 457 nM | 69.8%
6 | C/N=C(/S)C1=CC(C)(C)Oc2ccccc21 | 4270 nM | 89.3%
7 | C/N=C(/S)C1=CC(C)(C)Oc2ccc(Cl)cc21 | 37.2 nM | 73.1%
8 | CCc1ccc2c(c1)C(/C(S)=N\C)=CC(C)(C)O2 | 324 nM | 78.7%
9 | C/N=C(/S)C1=CC(C)(C)Oc2ccc(S(=O)(=O)c3ccccc3)cc21 | 19.1 nM | 73.7%

Molecules with a lower EC50 [2], results first:

Row | EC50 [2] | Compound | IA [1]
10 | 4.07 nM | C/N=C(/S)C1=CC(C)(C)Oc2ccc(OC(F)(F)F)cc21 | 76.1%
11 | 9.33 nM | C/N=C(/S)C1=CC(C)(C)Oc2ccc(Br)cc21 | 67.5%
12 | 12.6 nM | C/N=C(/S)C1=CC(C)(C)Oc2ccc(C(F)(F)C(F)(F)F)cc21 | 55.4%
13 | 1.35 nM | C/N=C(/S)C1=CC(C)(C)Oc2ccc([N+](=O)[O-])cc21 | 63.5%
14 | 2.04 nM | C/N=C(/S)C1=CC(C)(C)Oc2ccc(C(F)(F)F)cc21 | 73%
